Results on four molecules are retold here after patent US20100297038A1, “Benzimidazole Derivatives And Their Use As Cooling Agents” (Givaudan S.A., priority 2008, published 2010).

The assay is described as follows: Cooling intensity: panelists taste aqueous solutions, compared with menthol at 2 ppm. Conditions: tasted by a small group of panelists. It is filed as in vivo, human.
For `Cc1nc2ccccc2n1CCc1ccccc1` [Example 1, 2-methyl-1-phenethyl-1H-benzo[d]imidazole], the “Concentration with a cooling intensity similar to or slightly higher than that of a solution of menthol at 2 ppm” value (“Concentration” for short) came to 0.03 ppm.

Regarding `COc1ccc(CCn2c(C)nc3ccccc32)cc1` [Example 2, 1-(4-methoxyphenethyl)-2-methyl-1H-benzo[d]imidazole], the “Concentration” value came out at 0.1 ppm.

Take `CC1CCC(C(C)C)C(O)C1` (stereo not shown) [I-Menthol, I-menthol]: the “Concentration” value was 2.0 ppm.

In the case of `CCNC(=O)C1CC(C)CCC1C(C)C` (stereo not shown) [WS-3, N-ethyl p-menthanecarboxamide], the “Concentration” value is recorded as 1.5 ppm.
